Measured values from patent US10588317B2, “Isoxazoline-substituted benzamides and analogues as insecticides” (priority 2015, dated 2020).

Legend:
Type in all cases: in vivo
Tetranychus urticae = Tetranychus urticae (two-spotted spider mite): feeding/contact activity; conditions: 192 h, application rate 200 ppm, mixed population (mobile stages), 8 days after infestation, read-out: mortality
Protocol: Bean leaf discs on agar in 24-well microtiter plates were sprayed with aqueous test solutions prepared from 10'000 ppm DMSO stock solutions. After drying the leaf discs were infested with a mite population of mixed ages. The samples were assessed for mortality on mixed population (mobile stages) 8 days after infestation.

Spodoptera littoralis [1] = test: Spodoptera littoralis (Egyptian cotton leaf worm), uptake by lettuce roots from agar; conditions: 144 h, read-out: effect in at least one of the three categories (mortality, anti-feeding, or growth inhibition);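 note: 12.5 ppm test rate in agar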
Outline: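 Compound from 10'000 ppm DMSO stocks was mixed into agar, and lettuce grew on it for 7 days to take it up via roots. Cut leaves were infested with Spodoptera eggs; mortality, anti-feedant effect and growth inhibition scored 6 days later versus untreated samples.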

Euschistus heros = Euschistus heros (neotropical brown stink bug), sprayed soybean leaves; conditions: 120 h, application rate 200 ppm, N2 nymphs, 5 days after infestation, read-out: effect in at least one of the two categories (mortality or growth inhibition)
Outline: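 Soybean leaves on agar sprayed with aqueous dilutions of DMSO stocks, dried, then infested with N2 nymphs. Mortality and growth inhibition scored against untreated samples 5 days after infestation; application rate 200 ppm.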

Spodoptera littoralis [2] = test: Spodoptera littoralis (Egyptian cotton leaf worm), sprayed cotton leaf discs; conditions: foliar, 72 h, application rate 200 ppm, L1 larvae, 3 days after infestation, read-out: control (mortality, anti-feeding effect, growth inhibition)
Outline: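 Cotton leaf discs on agar sprayed with aqueous test solutions made from 10'000 ppm DMSO stock; after drying, infested with five L1 larvae. Mortality, anti-feeding and growth inhibition scored versus untreated samples 3 days after infestation; control counted when any category exceeds untreated.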

Plutella xylostella = Plutella xylostella (diamond back moth), artificial diet; conditions: 120 h, application rate 200 ppm, L2 larvae, 5 days after infestation, read-out: effect in at least one of the two categories (mortality or growth inhibition)
Outline: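 Artificial diet in 24-well plates treated with aqueous test solutions made from 10'000 ppm DMSO stocks, dried, then infested with L2 larvae (10 to 15 per well). Mortality and growth inhibition scored against untreated samples 5 days after infestation; activity cut-off at least 80% in either category at 200 ppm.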

Diabrotica balteata = Diabrotica balteata (corn root worm), sprayed maize sprouts; conditions: 96 h, application rate 200 ppm, L2 larvae, 4 days after infestation, read-out: effect in at least one of the two categories (mortality or growth inhibition)
Outline: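 Maize sprouts on agar sprayed with aqueous dilutions of DMSO stocks, dried, then infested with L2 larvae (6–10 per well). Mortality and growth inhibition scored against untreated controls 4 days after infestation, at 200 ppm application rate.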

Thrips tabaci = Thrips tabaci (onion thrips): feeding/contact activity; conditions: 144 h, application rate 200 ppm, Thrips population of mixed ages, 6 days after infestation, read-out: mortality
Protocol: Sunflower leaf discs were placed on agar in 24-well microtiter plates and sprayed with aqueous test solutions prepared from 10'000 ppm DMSO stock solutions. After drying the leaf discs were infested with a Thrips population of mixed ages. The samples were assessed for mortality 6 days after infestation.

Myzus persicae = Myzus persicae (green peach aphid): feeding/contact activity; conditions: 144 h, application rate 200 ppm, aphid population of mixed ages, 6 days after infestation, read-out: mortality
Protocol: Sunflower leaf discs were placed onto agar in a 24-well microtiter plate and sprayed with aqueous test solutions prepared from 10'000 ppm DMSO stock solutions. After drying, the leaf discs were infested with an aphid population of mixed ages. The samples were assessed for mortality 6 days after infestation.

CS(=O)(=O)N1C[C@@H](NC(=O)c2ccc(C3=NO[C@@](c4cc(Cl)cc(C(F)(F)F)c4)(C(F)(F)F)C3)cc2Cl)CO1 [Compound A123]
≥ 80%: mortality at 200 ppm (Tetranychus urticae) | percent control (mortality, anti-feedant effect or growth inhibition) at 12.5 ppm (Spodoptera littoralis [1]) | percent effect (mortality or growth inhibition) at 200 ppm (Euschistus heros) | mortality at 200 ppm (Spodoptera littoralis [2]) | percent effect (mortality or growth inhibition) at 200 ppm (Plutella xylostella) | percent effect (mortality or growth inhibition) at 200 ppm (Diabrotica balteata) | mortality at 200 ppm (Thrips tabaci) | mortality at 200 ppm (Myzus persicae)

Cc1cc(C2=NO[C@@](c3cc(Cl)cc(C(F)(F)F)c3)(C(F)(F)F)C2)ccc1C(=O)N[C@H]1CON(S(=O)(=O)N(C)C)C1 [Compound A91]
≥ 80%: mortality at 200 ppm (Tetranychus urticae) | percent control (mortality, anti-feedant effect or growth inhibition) at 12.5 ppm (Spodoptera littoralis [1]) | percent effect (mortality or growth inhibition) at 200 ppm (Euschistus heros) | mortality at 200 ppm (Spodoptera littoralis [2]) | percent effect (mortality or growth inhibition) at 200 ppm (Plutella xylostella) | percent effect (mortality or growth inhibition) at 200 ppm (Diabrotica balteata) | mortality at 200 ppm (Thrips tabaci) | mortality at 200 ppm (Myzus persicae)

COCCN(C)S(=O)(=O)N1CC(NC(=O)c2ccc(C3=NO[C@@](c4cc(Cl)c(Cl)c(Cl)c4)(C(F)(F)F)C3)cc2C)CO1 (stereo partly drawn) [Compound A90, N-[2-[2-methoxyethyl(methyl)sulfamoyl]isoxazolidin-4-yl]-2-methyl-4-[(5S)-5-(3,4,5-trichlorophenyl)-5-(trifluoromethyl)-4H-isoxazol-3-yl]benzamide]
≥ 80%: mortality at 200 ppm (Tetranychus urticae) | percent control (mortality, anti-feedant effect or growth inhibition) at 12.5 ppm (Spodoptera littoralis [1]) | percent effect (mortality or growth inhibition) at 200 ppm (Euschistus heros) | mortality at 200 ppm (Spodoptera littoralis [2]) | percent effect (mortality or growth inhibition) at 200 ppm (Plutella xylostella) | percent effect (mortality or growth inhibition) at 200 ppm (Diabrotica balteata) | mortality at 200 ppm (Thrips tabaci) | mortality at 200 ppm (Myzus persicae)

Cc1cc(C2=NO[C@@](c3cc(Cl)c(F)c(Cl)c3)(C(F)(F)F)C2)ccc1C(=O)NC1CON(S(=O)(=O)CCC(F)(F)F)C1 (stereo partly shown) [Compound A11]
≥ 80%: mortality at 200 ppm (Tetranychus urticae) | percent control (mortality, anti-feedant effect or growth inhibition) at 12.5 ppm (Spodoptera littoralis [1]) | percent effect (mortality or growth inhibition) at 200 ppm (Euschistus heros) | mortality at 200 ppm (Spodoptera littoralis [2]) | percent effect (mortality or growth inhibition) at 200 ppm (Plutella xylostella) | percent effect (mortality or growth inhibition) at 200 ppm (Diabrotica balteata) | mortality at 200 ppm (Thrips tabaci) | mortality at 200 ppm (Myzus persicae)

Cc1cc(C2=NO[C@@](c3cc(Cl)c(F)c(Cl)c3)(C(F)(F)F)C2)ccc1C(=O)NC1CON(S(=O)(=O)C2CC2)C1 (stereo partly shown) [Compound A6]
≥ 80%: mortality at 200 ppm (Tetranychus urticae) | percent control (mortality, anti-feedant effect or growth inhibition) at 12.5 ppm (Spodoptera littoralis [1]) | percent effect (mortality or growth inhibition) at 200 ppm (Euschistus heros) | mortality at 200 ppm (Spodoptera littoralis [2]) | percent effect (mortality or growth inhibition) at 200 ppm (Plutella xylostella) | percent effect (mortality or growth inhibition) at 200 ppm (Diabrotica balteata) | mortality at 200 ppm (Thrips tabaci) | mortality at 200 ppm (Myzus persicae)

Cc1cc(C2=NO[C@@](c3cc(Cl)cc(Cl)c3)(C(F)(F)F)C2)ccc1C(=O)NC1CON(S(C)(=O)=O)C1 (stereo partly shown) [Compound A40]
≥ 80%: mortality at 200 ppm (Tetranychus urticae) | percent control (mortality, anti-feedant effect or growth inhibition) at 12.5 ppm (Spodoptera littoralis [1]) | percent effect (mortality or growth inhibition) at 200 ppm (Euschistus heros) | mortality at 200 ppm (Spodoptera littoralis [2]) | percent effect (mortality or growth inhibition) at 200 ppm (Plutella xylostella) | percent effect (mortality or growth inhibition) at 200 ppm (Diabrotica balteata) | mortality at 200 ppm (Thrips tabaci) | mortality at 200 ppm (Myzus persicae)

CCS(=O)(=O)N1CC(NC(=O)c2ccc(C3=NO[C@@](c4cc(Cl)cc(C(F)(F)F)c4)(C(F)(F)F)C3)cc2C)CO1 (stereo partly shown) [Compound A42]
≥ 80%: mortality at 200 ppm (Tetranychus urticae) | percent control (mortality, anti-feedant effect or growth inhibition) at 12.5 ppm (Spodoptera littoralis [1]) | percent effect (mortality or growth inhibition) at 200 ppm (Euschistus heros) | mortality at 200 ppm (Spodoptera littoralis [2]) | percent effect (mortality or growth inhibition) at 200 ppm (Plutella xylostella) | percent effect (mortality or growth inhibition) at 200 ppm (Diabrotica balteata) | mortality at 200 ppm (Thrips tabaci) | mortality at 200 ppm (Myzus persicae)

CNS(=O)(=O)N1C[C@@H](NC(=O)c2ccc(C3=NO[C@@](c4cc(Cl)cc(Cl)c4)(C(F)(F)F)C3)cc2C)CO1 [Compound A139, 4-[(5S)-5-(3,5-dichlorophenyl)-5-(trifluoromethyl)-4H-isoxazol-3-yl]-2-methyl-N-[(4R)-2-(methylsulfamoyl)isoxazolidin-4-yl]benzamide]
≥ 80%: mortality at 200 ppm (Tetranychus urticae) | percent control (mortality, anti-feedant effect or growth inhibition) at 12.5 ppm (Spodoptera littoralis [1]) | percent effect (mortality or growth inhibition) at 200 ppm (Euschistus heros) | mortality at 200 ppm (Spodoptera littoralis [2]) | percent effect (mortality or growth inhibition) at 200 ppm (Plutella xylostella) | percent effect (mortality or growth inhibition) at 200 ppm (Diabrotica balteata) | mortality at 200 ppm (Thrips tabaci) | mortality at 200 ppm (Myzus persicae)

CCNS(=O)(=O)N1C[C@@H](NC(=O)c2ccc(C3=NO[C@@](c4cc(Cl)c(F)c(Cl)c4)(C(F)(F)F)C3)cc2C)CO1 [Compound A133, 4-[(5S)-5-(3,5-dichloro-4-fluoro-phenyl)-5-(trifluoromethyl)-4H-isoxazol-3-yl]-N-[(4R)-2-(ethylsulfamoyl)isoxazolidin-4-yl]-2-methyl-benzamide]
≥ 80%: mortality at 200 ppm (Tetranychus urticae) | percent control (mortality, anti-feedant effect or growth inhibition) at 12.5 ppm (Spodoptera littoralis [1]) | percent effect (mortality or growth inhibition) at 200 ppm (Euschistus heros) | mortality at 200 ppm (Spodoptera littoralis [2]) | percent effect (mortality or growth inhibition) at 200 ppm (Plutella xylostella) | percent effect (mortality or growth inhibition) at 200 ppm (Diabrotica balteata) | mortality at 200 ppm (Thrips tabaci) | mortality at 200 ppm (Myzus persicae)

Cc1cc(C2=NO[C@@](c3cc(Cl)c(F)c(Cl)c3)(C(F)(F)F)C2)ccc1C(=O)N[C@@H]1CON(S(=O)(=O)N(C)C)C1 (single isomer, unassigned) [Compound A34]
≥ 80%: mortality at 200 ppm (Tetranychus urticae) | percent control (mortality, anti-feedant effect or growth inhibition) at 12.5 ppm (Spodoptera littoralis [1]) | percent effect (mortality or growth inhibition) at 200 ppm (Euschistus heros) | mortality at 200 ppm (Spodoptera littoralis [2]) | percent effect (mortality or growth inhibition) at 200 ppm (Plutella xylostella) | percent effect (mortality or growth inhibition) at 200 ppm (Diabrotica balteata) | mortality at 200 ppm (Thrips tabaci) | mortality at 200 ppm (Myzus persicae)

Cc1cc(C2=NO[C@@](c3cc(Cl)c(F)c(Cl)c3)(C(F)(F)F)C2)ccc1C(=O)N[C@H]1CON(S(=O)(=O)N(C)C)C1 (single isomer, unassigned) [Compound A143]
≥ 80%: mortality at 200 ppm (Tetranychus urticae) | percent control (mortality, anti-feedant effect or growth inhibition) at 12.5 ppm (Spodoptera littoralis [1]) | percent effect (mortality or growth inhibition) at 200 ppm (Euschistus heros) | mortality at 200 ppm (Spodoptera littoralis [2]) | percent effect (mortality or growth inhibition) at 200 ppm (Plutella xylostella) | percent effect (mortality or growth inhibition) at 200 ppm (Diabrotica balteata) | mortality at 200 ppm (Thrips tabaci) | mortality at 200 ppm (Myzus persicae)
